Series [1] can be described thus: pKa value was determined. The format is physicochemical.
A further series has as its target Beta-lactamase (Enterobacter cloacae, UniProt P05364). The series is described as follows: Inhibitor activity against Beta-lactamase, derived from the Gram negative bacteria Enterobacter cloacae at pH 7.

Chain of Beta-lactamase (P05364 whole entry): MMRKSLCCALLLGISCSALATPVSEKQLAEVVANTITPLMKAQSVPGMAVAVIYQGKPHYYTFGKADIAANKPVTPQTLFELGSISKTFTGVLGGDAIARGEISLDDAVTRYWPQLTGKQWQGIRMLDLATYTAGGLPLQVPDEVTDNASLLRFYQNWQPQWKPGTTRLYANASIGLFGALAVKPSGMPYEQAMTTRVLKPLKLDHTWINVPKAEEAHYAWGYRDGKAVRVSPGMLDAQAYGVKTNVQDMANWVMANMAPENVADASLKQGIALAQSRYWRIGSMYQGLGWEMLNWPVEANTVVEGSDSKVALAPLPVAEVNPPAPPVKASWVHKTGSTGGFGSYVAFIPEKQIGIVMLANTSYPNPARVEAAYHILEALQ

One may read the pKa as the negative logarithm of the acid dissociation constant. Lower therefore signals a stronger acid or weaker base. In the case of `O=C(c1ccccc1)N1CCS1(=O)=O`, in series [1], the pKa amounted to 6.3. Also, on Beta-lactamase, the kinact/Ki stood at 163 M⁻¹ s⁻¹. In the case of `CC(C)C1CN(C(=O)c2ccccc2)S1(=O)=O` (stereo not drawn), on Beta-lactamase, the kinact/Ki stood at 0.07 M⁻¹ s⁻¹.

(Values after ChEMBL document CHEMBL1136502, “Novel mechanism of inhibiting beta-lactamases by sulfonylation using beta-sultams” (Bioorg Med Chem Lett, 2003).)
